Experimental data: paper PMC5222732 (Journal of medicinal chemistry, 2016)
“And” between values parts separate entries of the source, which are not always exact repeats. Equal values may be shown once. Read-outs that look alike come from different tables or passages of the source.

What was measured:
μ opioid receptor (MOR) [1] = target: μ opioid receptor (MOR) (Rattus norvegicus, UniProt P33535); format: binding
μ opioid receptor (MOR) [2] = format: cell-based, guinea pig
κ opioid receptor (KOR) = κ opioid receptor (KOR) (Cavia porcellus, UniProt P41144); assay: GPI functional assay, κ antagonist Ke; format: cell-based, guinea pig
[3] = target: mouse vas deferens (MVD), DOR (Mus musculus, UniProt P32300); assay: DOR-representative MVD functional assay; format: cell-based
Plasma stability assay = format: in vitro ADME; settings: 37 °C
[4] = target: bovine serum albumin (BSA) (Bos taurus, UniProt P02769); assay: Determination of serum albumin binding; format: in vitro ADME; settings: BSA 20 mg/mL, pH 7.4, 37 °C, 24-96 h
Sprague-Dawley rats [5] = assay: Tail heat algesia test; format: in vivo; settings: rat, 1 mg/kg iv, morphine 4 mg/kg sc
Sprague-Dawley rats [6] = assay: Hot plate algesia test; format: in vivo; settings: rat; for effect on morphine analgesia, heat withdrawal threshold (hot plate): morphine 4 mg/kg sc
[7] = In vivo brain uptake study, LC-MS/MS
δ receptors (DOR) = δ receptors (DOR) (Rattus norvegicus, UniProt P33533); assay: δ opioid receptor binding, [3H]DSLET displacement from rat brain membranes; settings: compared with cyclodal
Sequence of δ receptors (DOR) (P33533 whole entry): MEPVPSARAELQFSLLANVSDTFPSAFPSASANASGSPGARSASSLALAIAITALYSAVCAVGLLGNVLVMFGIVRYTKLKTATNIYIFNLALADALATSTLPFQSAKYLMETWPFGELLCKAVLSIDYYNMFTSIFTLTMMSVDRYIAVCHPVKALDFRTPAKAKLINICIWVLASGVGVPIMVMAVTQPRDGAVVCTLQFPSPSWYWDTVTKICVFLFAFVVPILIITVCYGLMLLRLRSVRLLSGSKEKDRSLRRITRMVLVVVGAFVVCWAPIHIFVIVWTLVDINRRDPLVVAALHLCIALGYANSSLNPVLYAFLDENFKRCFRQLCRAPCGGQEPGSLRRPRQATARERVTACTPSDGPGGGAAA

Sequence of μ opioid receptor (MOR) (Rattus norvegicus, UniProt P33535) (P33535 whole entry): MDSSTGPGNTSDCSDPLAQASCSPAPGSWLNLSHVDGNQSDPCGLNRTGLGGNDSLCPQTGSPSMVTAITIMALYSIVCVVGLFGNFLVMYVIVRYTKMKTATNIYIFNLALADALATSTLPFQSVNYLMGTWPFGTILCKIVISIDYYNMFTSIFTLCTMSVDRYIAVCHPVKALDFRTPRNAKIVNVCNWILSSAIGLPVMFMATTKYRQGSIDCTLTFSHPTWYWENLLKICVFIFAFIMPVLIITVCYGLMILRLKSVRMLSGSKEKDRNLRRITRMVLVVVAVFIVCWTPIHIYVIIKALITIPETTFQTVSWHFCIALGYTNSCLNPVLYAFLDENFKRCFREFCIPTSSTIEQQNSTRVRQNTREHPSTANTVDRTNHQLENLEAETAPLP
Sequence of mouse vas deferens (MVD), DOR (P32300 whole entry): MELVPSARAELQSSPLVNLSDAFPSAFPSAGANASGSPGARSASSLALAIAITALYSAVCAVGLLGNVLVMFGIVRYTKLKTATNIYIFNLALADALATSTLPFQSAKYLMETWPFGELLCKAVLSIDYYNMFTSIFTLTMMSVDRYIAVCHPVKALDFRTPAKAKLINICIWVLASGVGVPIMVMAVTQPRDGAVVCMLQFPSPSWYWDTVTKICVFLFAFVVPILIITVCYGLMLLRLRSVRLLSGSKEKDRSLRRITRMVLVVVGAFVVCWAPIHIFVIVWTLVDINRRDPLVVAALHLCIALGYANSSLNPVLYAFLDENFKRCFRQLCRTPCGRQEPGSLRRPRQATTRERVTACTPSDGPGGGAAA
Sequence of κ opioid receptor (KOR) (P41144 whole entry): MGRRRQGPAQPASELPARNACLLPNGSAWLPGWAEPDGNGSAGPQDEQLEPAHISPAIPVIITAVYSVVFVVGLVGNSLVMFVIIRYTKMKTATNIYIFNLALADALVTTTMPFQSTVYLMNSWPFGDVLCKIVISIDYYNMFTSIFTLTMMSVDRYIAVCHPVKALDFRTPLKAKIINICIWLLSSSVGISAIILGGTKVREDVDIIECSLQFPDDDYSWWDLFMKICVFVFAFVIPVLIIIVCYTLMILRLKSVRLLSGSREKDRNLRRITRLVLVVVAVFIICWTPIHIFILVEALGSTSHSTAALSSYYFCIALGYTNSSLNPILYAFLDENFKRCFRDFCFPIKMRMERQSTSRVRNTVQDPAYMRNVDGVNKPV
Sequence of bovine serum albumin (BSA) (P02769 25-607): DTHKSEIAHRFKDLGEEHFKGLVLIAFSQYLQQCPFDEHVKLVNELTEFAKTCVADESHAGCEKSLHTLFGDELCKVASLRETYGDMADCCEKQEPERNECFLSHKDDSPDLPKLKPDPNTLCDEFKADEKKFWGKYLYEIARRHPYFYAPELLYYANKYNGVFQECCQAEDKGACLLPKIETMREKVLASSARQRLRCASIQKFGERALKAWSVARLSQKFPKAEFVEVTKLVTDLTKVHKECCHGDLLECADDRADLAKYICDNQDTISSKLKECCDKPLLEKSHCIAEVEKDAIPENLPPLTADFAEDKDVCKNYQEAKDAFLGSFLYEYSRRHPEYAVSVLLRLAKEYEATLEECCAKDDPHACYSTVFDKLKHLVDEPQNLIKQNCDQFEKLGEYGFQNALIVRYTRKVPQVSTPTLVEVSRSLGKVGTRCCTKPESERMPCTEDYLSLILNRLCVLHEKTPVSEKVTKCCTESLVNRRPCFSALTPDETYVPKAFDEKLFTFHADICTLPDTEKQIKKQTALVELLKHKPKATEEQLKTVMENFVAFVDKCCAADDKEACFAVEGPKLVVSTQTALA

Structure (SMILES): Cc1cc(O)cc(C)c1C[C@@H]1NC(=O)[C@H](CCCCN)NC(=O)[C@H](Cc2ccccc2)NC(=O)[C@@H](CCCNC(=N)N)NC1=O [compound 1, c[-D-Arg-Phe-Lys-Dmt-]]
- higher MOR binding affinity (μ opioid receptor (MOR) [1]): 20 fold
- GPI Ke (MOR antagonist) (μ opioid receptor (MOR) [2]): 3.12 ± 0.20 nM and 3.06 ± 0.62 nM
- GPI Ke^μ (μ opioid receptor (MOR) [2]): 3.26 ± 0.84 nM
- Kb (κ opioid receptor (KOR); GPI Ke (KOR antagonist), against dynorphin A(1-13)): 206 ± 24 nM
- Kb (κ opioid receptor (KOR); GPI Ke^κ, determined against U50,488): 40.3 ± 2.6 nM
- activity in the MVD assay [3]: low efficacy partial agonist activity
- activity in the MVD assay ([3]; listed as cyclodal): weak DOR partial agonist
- stability in rat plasma (Plasma stability assay): stable for up to 48 h
- BSA absorption [4]: No decrease in peptide peak intensity was observed
- effect on tail withdrawal latency (TWL) after morphine (Sprague-Dawley rats [5]): not at a dose of 1 mg/kg
- effect on morphine analgesia, heat withdrawal threshold (hot plate) (Sprague-Dawley rats [6]; 1 mg/kg iv): not at the 1 mg/kg dose
- effect on morphine analgesia, heat withdrawal threshold (hot plate) (Sprague-Dawley rats [6]; 5 mg/kg iv): morphine analgesia at the 30 min time point was reduced
- plasma AUC ([7]; male CD1 mice, 2 mg/kg iv): 0.0303 µg·min/mL
- time of maximum brain concentration ([7]; mice, 2 mg/kg iv, after administration): 30 min

Structure (SMILES): CCCC[C@@H]1NC(=O)[C@H](Cc2ccccc2)NC(=O)[C@@H](CCCNC(=N)N)NC(=O)[C@H](Cc2c(C)cc(O)cc2C)NC1=O [compound 4, c[-D-Arg-Phe-Nle-Dmt-]]
- activity in the MVD assay [3]: low efficacy partial agonist activity

Structure (SMILES): Cc1cc(O)cc(C)c1C[C@H](N)C(=O)N[C@H](CCCNC(=N)N)C(=O)N[C@@H](Cc1ccccc1)C(=O)N[C@@H](CCCCN)C(N)=O [compound 9, H-Dmt-D-Arg-Phe-Lys-NH2]
- BSA absorption [4]: No decrease in peptide peak intensity was observed
- brain AUC ([7]; male CD1 mice, 2 mg/kg iv): 0.352 µg·min/g
- AUC ([7]; male, CD1, mouse, in vivo, iv, 2 mg/kg): 83 ng·h/mL

Structure (SMILES): Cc1cc(O)cc(C)c1C[C@@H]1NC(=O)C[C@H](CCCCN)NC(=O)[C@H](Cc2ccccc2)NC(=O)[C@@H](CCCNC(=N)N)NC1=O [compound 7, c[-D-Arg-Phe-β-hLys-Dmt-]]
- Ki ratio μ/δ/κ (μ opioid receptor (MOR) [1]): 1/135/6
- reduced/lower MOR binding affinity (μ opioid receptor (MOR) [1]): 2 fold
- lower DOR binding affinity (δ receptors (DOR)): 11 fold
- GPI Ke^μ (μ opioid receptor (MOR) [2]): 10.5 ± 1.1 nM
- Kb (κ opioid receptor (KOR)): 18.2 ± 1.7 nM
- more potent KOR antagonist (κ opioid receptor (KOR)): 2 fold
- MVD IC50 [3]: inactive

Structure (SMILES): Cc1cc(O)cc(C)c1C[C@@H]1NC(=O)[C@H](CCCN)NC(=O)[C@H](Cc2ccccc2)NC(=O)[C@@H](CCCNC(=N)N)NC1=O [compound 6, c[-D-Arg-Phe-Orn-Dmt-]]
- GPI Ke^μ (μ opioid receptor (MOR) [2]): 16.8 ± 2.6 nM
- activity in the MVD assay [3]: low efficacy partial agonist activity

Structure (SMILES): C[C@@H](O)[C@H](NC(=O)[C@H]1NC(=O)[C@H]([C@@H](C)O)NC(=O)[C@H](CCCN)NC(=O)[C@@H](Cc2c[nH]c3ccccc23)NC(=O)[C@H](Cc2ccc(O)cc2)NC(=O)[C@@H](NC(=O)[C@H](N)Cc2ccccc2)CSSC1(C)C)C(N)=O [compound 10, H-D-Phe-c[Cys-Tyr-D-Trp-Orn-Thr-Pen]-Thr-NH2, reference compound]
- GPI Ke^μ (μ opioid receptor (MOR) [2]): 40.9 ± 2.7 nM
- Kb (κ opioid receptor (KOR)): 6940 ± 580 nM
- activity in the MVD assay [3]: low efficacy partial agonist activity

Structure (SMILES): CN1CC[C@]23c4c5ccc(O)c4O[C@H]2[C@@H](O)C=C[C@H]3[C@H]1C5 [morphine, reference compound]
- analgesia, heat withdrawal threshold (hot plate) (Sprague-Dawley rats [6]; 4 mg/kg sc, compared to vehicle): produced analgesia compared to vehicle at the 30 and 60 min time points
